# Results published in patent publication US9321766B1, “Kinase inhibitors” (Allergan, Inc., priority 2014, dated 2016).
# Assays:
# [1] = biological target: VEGFR2 (KDR) kinase (Homo sapiens (Human), UniProt P35968); assay: VEGFR2 Kinase Assay (biochemical KDR kinase assay, poly-Glu-Tyr ELISA); details: purified cytoplasmic domain KDR protein, 2.7 μM ATP
# Protocol: VEGFR2 kinase potency of select analogs was determined by the following assay:
# Biochemical KDR kinase assays were performed in 96 well microtiter plates that were coated overnight with 75 μg/well of poly-Glu-Tyr (4:1) in 10 mM Phosphate Buffered Saline (PBS), pH 7.4. The coated plates were washed with 2 mls per well PBS+0.05% Tween-20 (PBS-T), blocked by incubation with PBS containing 1% BSA, then washed with 2 mls per well PBS-T prior to starting the reaction. Reactions were carried out in 100 μL reaction volumes containing 2.7 μM ATP in kinase buffer (50 mM Hepes buffer pH 7.4, 20 mM MgCl2, 0.1 mM MnCl2 and 0.2 mM Na3VO4). Test compounds were reconstituted in 100% DMSO and added to the reaction to give a final DMSO concentration of 5%. Reactions were initiated by the addition 20 ul per well of kinase buffer containing 200-300 ng purified cytoplasmic domain KDR protein (BPS Bioscience, San Diego, Calif.). Following a 15 minute incubation at 30° C., the reactions were washed 2 mls per well PBS-T. 100 μl of a monoclonal anti-phosphotyrosine antibody-peroxidase conjugate diluted 1:10,000 in PBS-T was added to the wells for 30 minutes. Following a 2 mis per well wash with PBS-Tween-20, 100μl of O-Phenylenediamine Dihydrochloride in phosphate-citrate buffer, containing urea hydrogen peroxide, was added to the wells for 7-10 minutes as a colorimetric substrate for the peroxidase. The reaction was terminated by the addition of 100 μl of 2.5N H2SO4 to each well and read using a microplate ELISA reader set at 492 nm. IC50 values for compound inhibition were calculated directly from graphs of optical density (arbitrary units) versus compound concentration following subtraction of blank values.
# [2] = biological target: PDGFRβ kinase (Homo sapiens (Human), UniProt P09619); assay: PDGFRβ Kinase Assay (biochemical, poly-Glu-Tyr ELISA); details: purified cytoplasmic domain PDGFR-b protein, 36 μM ATP
# Protocol: Biochemical PDGFR3 kinase assays were performed in 96 well microtiter plates that were coated overnight with 75 μg of poly-Glu-Tyr (4:1) in 10 mM Phosphate Buffered Saline (PBS), pH 7.4. The coated plates were washed with 2 mls per well PBS+0.05% Tween-20 (PBS-T), blocked by incubation with PBS containing 1% BSA, then washed with 2 mls per well PBS-T prior to starting the reaction. Reactions were carried out in 100 μL reaction volumes containing 36 μM ATP in kinase buffer (50 mM Hepes buffer pH 7.4, 20 mM MgCl2, 0.1 mM MnCl2 and 0.2 mM Na3VO4). Test compounds were reconstituted in 100% DMSO and added to the reaction to give a final DMSO concentration of 5%. Reactions were initiated by the addition 20 ul per well of kinase buffer containing 200-300 ng purified cytoplasmic domain PDGFR-b protein (Millipore). Following a 60 minute incubation at 30° C., the reactions were washed 2 mls per well PBS-T. 100 μl of a monoclonal anti-phosphotyrosine antibody-peroxidase conjugate diluted 1:10,000 in PBS-T was added to the wells for 30 minutes. Following a 2 mls per well wash with PBS-Tween-20, 100 μl of O-Phenylenediamine Dihydrochloride in phosphate-citrate buffer, containing urea hydrogen peroxide, was added to the wells for 7-10 minutes as a colorimetric substrate for the peroxidase. The reaction was terminated by the addition of 100 μl of 2.5N H2SO4 to each well and read using a microplate ELISA reader set at 492 nm. IC50 values for compound inhibition were calculated directly from graphs of optical density (arbitrary units) versus compound concentration following subtraction of blank values.
# Sequence of PDGFRβ kinase (P09619 554-1106): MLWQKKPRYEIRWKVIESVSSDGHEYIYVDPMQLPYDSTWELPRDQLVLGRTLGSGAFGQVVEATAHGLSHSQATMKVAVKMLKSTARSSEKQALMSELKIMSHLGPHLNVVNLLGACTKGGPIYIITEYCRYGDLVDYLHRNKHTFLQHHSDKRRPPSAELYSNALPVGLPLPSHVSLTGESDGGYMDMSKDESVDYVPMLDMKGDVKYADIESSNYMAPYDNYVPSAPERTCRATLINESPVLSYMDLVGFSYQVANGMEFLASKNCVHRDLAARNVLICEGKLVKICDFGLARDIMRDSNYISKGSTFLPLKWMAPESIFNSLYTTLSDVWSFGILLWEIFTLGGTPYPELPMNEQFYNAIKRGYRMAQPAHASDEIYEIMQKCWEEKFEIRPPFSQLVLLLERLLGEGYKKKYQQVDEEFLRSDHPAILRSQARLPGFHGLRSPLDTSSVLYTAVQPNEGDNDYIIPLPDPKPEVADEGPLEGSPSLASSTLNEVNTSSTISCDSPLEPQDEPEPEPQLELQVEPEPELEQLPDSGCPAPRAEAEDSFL
# Sequence of VEGFR2 (KDR) kinase (P35968 786-1356, species assumed): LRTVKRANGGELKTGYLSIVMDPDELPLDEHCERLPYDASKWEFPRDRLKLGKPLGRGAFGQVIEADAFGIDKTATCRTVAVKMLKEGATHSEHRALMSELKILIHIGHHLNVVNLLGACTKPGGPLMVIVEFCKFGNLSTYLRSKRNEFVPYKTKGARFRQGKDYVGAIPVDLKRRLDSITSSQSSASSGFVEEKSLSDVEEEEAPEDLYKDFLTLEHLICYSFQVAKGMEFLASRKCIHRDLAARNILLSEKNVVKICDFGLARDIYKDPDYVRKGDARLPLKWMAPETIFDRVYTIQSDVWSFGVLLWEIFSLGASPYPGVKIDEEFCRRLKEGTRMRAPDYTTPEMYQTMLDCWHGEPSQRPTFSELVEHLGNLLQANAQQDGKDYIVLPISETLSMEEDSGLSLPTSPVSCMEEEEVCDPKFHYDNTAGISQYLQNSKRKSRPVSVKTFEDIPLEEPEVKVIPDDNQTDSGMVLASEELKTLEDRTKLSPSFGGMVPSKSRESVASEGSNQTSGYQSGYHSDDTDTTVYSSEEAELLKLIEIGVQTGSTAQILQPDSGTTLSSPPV
IC50 [1],IC50 [2],SMILES
> 10000 nM,3890 nM,"Cc1cc[nH]c(=O)c1N1CCc2nc(N)ncc2C1 [Example 3, 3-(2-amino-7,8-dihydropyrido[4,3-d]pyrimidin-6(5H)-yl)-4-methylpyridin-2(1H)-one]"
29 nM,33 nM,"Cc1ccoc1C(=O)Nc1ccc(-n2ccc(C)c(N3CCc4nc(N)ncc4C3)c2=O)cc1 [Example 17, N-{4-[3-(2-amino-7,8-dihydropyrido[4,3-d]pyrimidin-6(5H)-yl)-4-methyl-2-oxopyridin-1(2H)-yl]phenyl}-3-methyl-2-furamide]"
327 nM,> 1000 nM,"Cc1ccn(-c2cccc(N(C)C)c2)c(=O)c1N1CCc2nc(N)ncc2C1 [Example 14, 3-(2-amino-7,8-dihydropyrido[4,3-d]pyrimidin-6(5H)-yl)-1-[3-(dimethylamino)phenyl]-4-methylpyridin-2(1H)-one]"
286 nM,655 nM,"CC(C)(C)c1ccc(-n2cccc(N3CCc4nc(N)ncc4C3)c2=O)cc1 [Example 2, 3-(2-amino-7,8-dihydropyrido[4,3-d]pyrimidin-6(5H)-yl)-1-(4-(tert-butyl)phenyl)pyridin-2(1H)-one]"
86 nM,381 nM,"Cc1ccn(-c2ccc(C(C)(C)C)cc2)c(=O)c1N1CCc2nc(N)ncc2C1 [Example 4, 3-(2-amino-7,8-dihydropyrido[4,3-d]pyrimidin-6(5H)-yl)-1-(4-tert-butylphenyl)-4-methylpyridin-2(1H)-one]"
